Data taken from ChEMBL document CHEMBL4808180, “Identification of 2,2-Dimethylbutanoic Acid (HST5040), a Clinical Development Candidate for the Treatment of Propionic Acidemia and Methylmalonic Acidemia” (J Med Chem, 2021).

Assays:
[1] = Reduction of propionyl-CoA in human hepatocytes derived from propionic acidemia patient at 100 uM pretreated for 30 mins followed by 13C-isoleucine addition and measured after 1 hr by MS/MS analysis relative to control; format: functional, Hepatocyte; parameters: scale not given: the % may be the effect or the level left; details: time 90 min, 1.5 h
[2] = Reduction of propionyl-CoA in human hepatocytes derived from propionic acidemia patient pretreated for 30 mins followed by 13C-isoleucine addition and measured after 1 hr by MS/MS analysis; format: functional, cell-based; details: hepatocyte

Structure (SMILES) | Activity [1] [%] | EC50 [2] [µM]
CCCC(C)C(=O)O (stereo unspecified) | 77 | 12.6
CC(CCO)C(=O)O (stereo unspecified) | 66 | > 100
CCC(CC)C(=O)O | 67 | 33.7
CCCC(CCC)C(=O)OC | 63 | > 100
O=C(O)C1CCCC1 | 42 | 12.3
O=C(O)C1CCC1 | 49 | 55.4
O=C(O)CCCC(F)(F)F | 65 | 9.91
CC1(CC(=O)O)CC1 | 65 | 15.5
CCC(C)(C)C(N)=O | 57 | > 100
CSCCCC(=O)O | 78 | 18.9
CCCC(CC)C(=O)O (stereo unspecified) | 98 | 1.23
COCC(C)(C)C(=O)O | 75 | 2.69
CNCCC(=O)O | 64 | 6.55
CCCC(C)(C)C(=O)O | 96 | 0.76
CCC(C)(C)C(=O)OC | 91 | 1.73
O=C(O)C1CC1 [CYCLOPROPANE CARBOXYLIC ACID] | 66 | 23.3
CC(C)(C)C(=O)O [PIVALATE] | 77 | 5.53
CC(C)(C)CC(=O)O [T-BUTYLACETIC ACID] | 97 | 0.91
